According to patent US20160158317A1, “Antimicrobial Peptide Variants and Polynucleotides Encoding Same” (Adenium Biotech A/S, priority 2010, published 2016):
Where a SMILES comes first, the peptide text is derived from it. Bridges are numbered along the chain shown (N, C = ends).

Assay: Determination of the protein binding (90% serum, 30 kDa filter, HPLC)
Type: in vitro ADME
Settings: serum
Description: Protein binding assays were performed as follows. The purified peptides were mixed with 90% serum and centrifuged through a 30 kDa filter. The ultra-filtrate and the non filtrated serum samples were quantified by HPLC measurements and the protein binding was subsequently calculated.

SMILES | fraction unbound
CC(C)[C@@H]1NC(=O)CNC(=O)[C@H](CC(N)=O)NC(=O)[C@H](CCCNC(=N)N)NC(=O)[C@H](Cc2ccc(O)cc2)NC(=O)[C@H](C(C)C)NC(=O)[C@@H]2CSSC[C@H](NC(=O)[C@H](C(C)C)NC(=O)[C@H](CCCNC(=N)N)NC1=O)C(=O)N[C@@H](Cc1ccc(O)cc1)C(=O)N[C@@H](CCCNC(=N)N)C(=O)N[C@@H](CCCNC(=N)N)C(=O)N[C@H](C(=O)N[C@@H](CC(N)=O)C(=O)O)CSSC[C@H](NC(=O)[C@H](C)NC(=O)CN)C(=O)N[C@@H](Cc1c[nH]c3ccccc13)C(=O)N[C@@H](Cc1ccc(O)cc1)C(=O)N[C@@H](C(C)C)C(=O)N2 [compound 3] (H-GACWYVCVYRNGVRVCYRRCN-OH; disulfide 3-20, 7-16 (inferred); N-terminus and C-terminus assumed) | 0.14
CC(C)[C@@H]1NC(=O)CNC(=O)[C@H](CC(N)=O)NC(=O)[C@H](CCCNC(=N)N)NC(=O)[C@H](Cc2ccc(O)cc2)NC(=O)[C@H](C(C)C)NC(=O)[C@@H]2CSSC[C@H](NC(=O)[C@H](C(C)C)NC(=O)[C@H](CCCNC(=N)N)NC1=O)C(=O)N[C@@H](Cc1ccc(O)cc1)C(=O)N[C@@H](CCCNC(=N)N)C(=O)N[C@@H](CCCNC(=N)N)C(=O)N[C@H](C(=O)N[C@@H](CC(N)=O)C(=O)O)CSSC[C@H](NC(=O)[C@H](Cc1ccccc1)NC(=O)CN)C(=O)N[C@@H](C)C(=O)N[C@@H](Cc1ccc(O)cc1)C(=O)N[C@@H](C(C)C)C(=O)N2 [compound 4] (H-GFCAYVCVYRNGVRVCYRRCN-OH; disulfide 3-20, 7-16 (inferred); N-terminus and C-terminus assumed) | 0.11
CC(C)[C@@H]1NC(=O)CNC(=O)[C@H](CC(N)=O)NC(=O)[C@H](CCCNC(=N)N)NC(=O)[C@H](Cc2ccc(O)cc2)NC(=O)[C@H](C(C)C)NC(=O)[C@@H]2CSSC[C@H](NC(=O)[C@H](C(C)C)NC(=O)[C@H](CCCNC(=N)N)NC1=O)C(=O)N[C@@H](Cc1ccc(O)cc1)C(=O)N[C@@H](CCCNC(=N)N)C(=O)N[C@@H](CCCNC(=N)N)C(=O)N[C@H](C(=O)N[C@@H](CC(N)=O)C(=O)O)CSSC[C@H](NC(=O)[C@H](Cc1ccccc1)NC(=O)CN)C(=O)N[C@@H](CO)C(=O)N[C@@H](Cc1ccc(O)cc1)C(=O)N[C@@H](C(C)C)C(=O)N2 [compound 7] (H-GFCSYVCVYRNGVRVCYRRCN-OH; disulfide 3-20, 7-16 (inferred); N-terminus and C-terminus assumed) | 0.32
CC(C)[C@@H]1NC(=O)CNC(=O)[C@H](CC(N)=O)NC(=O)[C@H](CCCNC(=N)N)NC(=O)[C@H](Cc2ccc(O)cc2)NC(=O)[C@H](C(C)C)NC(=O)[C@@H]2CSSC[C@H](NC(=O)[C@H](C(C)C)NC(=O)[C@H](CCCNC(=N)N)NC1=O)C(=O)N[C@@H](Cc1ccc(O)cc1)C(=O)N[C@@H](CCCNC(=N)N)C(=O)N[C@@H](CCCNC(=N)N)C(=O)N[C@H](C(=O)N[C@@H](CC(N)=O)C(=O)O)CSSC[C@H](NC(=O)[C@H](Cc1ccccc1)NC(=O)CN)C(=O)N[C@@H](Cc1c[nH]c3ccccc13)C(=O)N[C@@H](CCCCN)C(=O)N[C@@H](C(C)C)C(=O)N2 [compound 10] (H-GFCWKVCVYRNGVRVCYRRCN-OH; disulfide 3-20, 7-16 (inferred); N-terminus and C-terminus assumed) | 0.36
CC(C)[C@@H]1NC(=O)CNC(=O)[C@H](CC(N)=O)NC(=O)[C@H](CCCNC(=N)N)NC(=O)[C@H](Cc2ccc(O)cc2)NC(=O)[C@H](C(C)C)NC(=O)[C@@H]2CSSC[C@H](NC(=O)[C@H](C(C)C)NC(=O)[C@H](CCCNC(=N)N)NC1=O)C(=O)N[C@@H](Cc1ccc(O)cc1)C(=O)N[C@@H](CCCNC(=N)N)C(=O)N[C@@H](CCCNC(=N)N)C(=O)N[C@H](C(=O)N[C@@H](CC(N)=O)C(=O)O)CSSC[C@H](NC(=O)[C@H](Cc1ccccc1)NC(=O)CN)C(=O)N[C@@H](Cc1c[nH]c3ccccc13)C(=O)N[C@@H](CC(N)=O)C(=O)N[C@@H](C(C)C)C(=O)N2 [compound 11] (H-GFCWNVCVYRNGVRVCYRRCN-OH; disulfide 3-20, 7-16 (inferred); N-terminus and C-terminus assumed) | 0.27
CC(C)[C@@H]1NC(=O)CNC(=O)[C@H](CC(N)=O)NC(=O)[C@H](CCCNC(=N)N)NC(=O)[C@H](Cc2ccc(O)cc2)NC(=O)[C@H](C(C)C)NC(=O)[C@@H]2CSSC[C@H](NC(=O)[C@H](C(C)C)NC(=O)[C@H](CCCNC(=N)N)NC1=O)C(=O)N[C@@H](Cc1ccc(O)cc1)C(=O)N[C@@H](CCCNC(=N)N)C(=O)N[C@@H](CCCNC(=N)N)C(=O)N[C@H](C(=O)N[C@@H](CC(N)=O)C(=O)O)CSSC[C@H](NC(=O)[C@H](Cc1ccccc1)NC(=O)CN)C(=O)N[C@@H](Cc1c[nH]c3ccccc13)C(=O)N[C@@H](Cc1ccc(O)cc1)C(=O)NCC(=O)N2 [compound 15] (H-GFCWYGCVYRNGVRVCYRRCN-OH; disulfide 3-20, 7-16 (inferred); N-terminus and C-terminus assumed) | 0.04
CC(C)[C@@H]1NC(=O)CNC(=O)[C@H](CC(N)=O)NC(=O)[C@H](CCCNC(=N)N)NC(=O)[C@H](Cc2ccc(O)cc2)NC(=O)[C@H](C(C)C)NC(=O)[C@@H]2CSSC[C@H](NC(=O)[C@H](C(C)C)NC(=O)[C@H](CCCNC(=N)N)NC1=O)C(=O)N[C@@H](Cc1ccc(O)cc1)C(=O)N[C@@H](CCCNC(=N)N)C(=O)N[C@@H](CCCNC(=N)N)C(=O)N[C@H](C(=O)N[C@@H](CC(N)=O)C(=O)O)CSSC[C@H](NC(=O)[C@H](Cc1ccccc1)NC(=O)CN)C(=O)N[C@@H](Cc1c[nH]c3ccccc13)C(=O)N[C@@H](Cc1ccc(O)cc1)C(=O)N[C@@H](CO)C(=O)N2 [compound 19] (H-GFCWYSCVYRNGVRVCYRRCN-OH; disulfide 3-20, 7-16 (inferred); N-terminus and C-terminus assumed) | 0.11
CC(C)[C@@H]1NC(=O)CNC(=O)[C@H](CC(N)=O)NC(=O)[C@H](CCCNC(=N)N)NC(=O)[C@H](Cc2ccc(O)cc2)NC(=O)[C@H](C(C)C)NC(=O)[C@@H]2CSSC[C@H](NC(=O)[C@H](C(C)C)NC(=O)[C@H](CCCNC(=N)N)NC1=O)C(=O)N[C@@H](Cc1ccc(O)cc1)C(=O)N[C@@H](CCCNC(=N)N)C(=O)N[C@@H](CCCNC(=N)N)C(=O)N[C@H](C(=O)N[C@@H](CC(N)=O)C(=O)O)CSSC[C@H](NC(=O)[C@H](Cc1ccccc1)NC(=O)CN)C(=O)N[C@@H](Cc1c[nH]c3ccccc13)C(=O)N[C@@H](Cc1ccc(O)cc1)C(=O)N[C@@H](Cc1c[nH]c3ccccc13)C(=O)N2 [compound 20] (H-GFCWYWCVYRNGVRVCYRRCN-OH; disulfide 3-20, 7-16 (inferred); N-terminus and C-terminus assumed) | 0.01
CC(C)[C@@H]1NC(=O)CNC(=O)[C@H](CC(N)=O)NC(=O)[C@H](CCCNC(=N)N)NC(=O)[C@H](Cc2ccc(O)cc2)NC(=O)[C@H](C)NC(=O)[C@@H]2CSSC[C@H](NC(=O)[C@H](C(C)C)NC(=O)[C@H](CCCNC(=N)N)NC1=O)C(=O)N[C@@H](Cc1ccc(O)cc1)C(=O)N[C@@H](CCCNC(=N)N)C(=O)N[C@@H](CCCNC(=N)N)C(=O)N[C@H](C(=O)N[C@@H](CC(N)=O)C(=O)O)CSSC[C@H](NC(=O)[C@H](Cc1ccccc1)NC(=O)CN)C(=O)N[C@@H](Cc1c[nH]c3ccccc13)C(=O)N[C@@H](Cc1ccc(O)cc1)C(=O)N[C@@H](C(C)C)C(=O)N2 [compound 21] (H-GFCWYVCAYRNGVRVCYRRCN-OH; disulfide 3-20, 7-16 (inferred); N-terminus and C-terminus assumed) | 0.015
